Results as given in paper PMC8592027, “Structure-Guided Design of D-Galactal Derivatives with High Affinity and Selectivity for the Galectin-8 N-Terminal Domain” (ACS Medicinal Chemistry Letters, 2021).
“Also recorded” adds a separate entry of the source.

Key:
[1] = molecular target: T1, galectin-4C (C-terminal domain) (Homo sapiens, UniProt P56470); assay: Competitive fluorescence polarization assay, galectin-4C; format: binding; details: mean ± SEM of n = 4–8
T1 construct: galectins (N = N-terminal domain, C = C-terminal domain); made in house
T1 sequence (P56470 194-323 limits assumed): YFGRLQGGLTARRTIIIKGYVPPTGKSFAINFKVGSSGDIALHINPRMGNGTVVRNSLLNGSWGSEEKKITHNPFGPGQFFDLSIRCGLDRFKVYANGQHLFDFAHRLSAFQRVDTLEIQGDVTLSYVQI
Procedure: (§1) 1. Competitive fluorescence polarization experiments:
(§2) Human galectins -1, -3, -4N, -4C, -7, -8N, -9N, and -9C were expressed and purified as previously described 30,41. Fluorescence polarisation experiments were performed using the PHERAstar FS plat e reader (software version 2.10 R3), and the fluorescence anisotropy of fluorescein tagged probes was measured by excitation at 485 nm and emission at 520 nm. The specific conditions for galectins -1, -3, -4N, -4C, -7, -8N, -9N, and -9C were kept as report ed30,41,42. The synthesised compounds were dissolved in pure DMSO at 20 mM concentration and diluted in PBS to 3-6 different concentrations, and each concentration was tested in duplicate. The highest inhibitor concentrations tested were 1.5 mM. The

[2] = molecular target: T2, galectin-4N (N-terminal domain) (Homo sapiens, UniProt P56470); assay: Competitive fluorescence polarization assay, galectin-4N; format: binding; details: mean ± SEM of n = 4–8
T2 construct: galectins (N = N-terminal domain, C = C-terminal domain); made in house
T2 sequence (P56470 19-150 limits assumed): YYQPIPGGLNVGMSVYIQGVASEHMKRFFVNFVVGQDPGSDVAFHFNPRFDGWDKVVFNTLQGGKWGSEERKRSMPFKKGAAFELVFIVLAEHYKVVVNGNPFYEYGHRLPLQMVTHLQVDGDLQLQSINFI
Procedure: as §1, §2

[3] = molecular target: T3, galectin-8C (C-terminal domain) (Homo sapiens, UniProt O00214); assay: Competitive fluorescence polarization assay, galectin-8C; format: binding; details: mean ± SEM of n = 4–8
T3 construct: galectins (N = N-terminal domain, C = C-terminal domain)
T3 sequence (O00214 187-317 limits assumed): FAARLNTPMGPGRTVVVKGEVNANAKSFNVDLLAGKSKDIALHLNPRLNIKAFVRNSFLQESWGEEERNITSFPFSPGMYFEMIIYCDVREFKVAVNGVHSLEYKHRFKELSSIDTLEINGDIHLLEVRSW

[4] = molecular target: T4, galectin-9N (N-terminal domain) (Homo sapiens, UniProt O00182); assay: Competitive fluorescence polarization assay, galectin-9N; format: binding; details: mean ± SEM of n = 4–8
T4 construct: galectins (N = N-terminal domain, C = C-terminal domain); made in house
Procedure: as §1, §2

[5] = molecular target: T5, galectin-7 (Homo sapiens, UniProt P47929); assay: Competitive fluorescence polarization assay, galectin-7; format: binding; details: mean ± SEM of n = 4–8
T5 construct: made in house
Procedure: as §1, §2

[6] = system: K562 cancer cell line; assay: MTS metabolic activity (cytotoxicity) assay, K562; format: cell-based; details: concentrations 1 to 100 μM, 24 hours
Procedure: (§3) We have investigated the cytotoxicity of the compounds 1, 6a, and 6c via a (3-(4,5-dimethylthiazol-2-yl)-5-(3-carboxymethoxyphenyl)-2-(4-sulfophenyl)-2H-tetrazolium) (MTS) assay in K562 and MDA-MB-231 cancer cell lines to establish the direct antitumor activity of compounds, as well as human peripheral blood mononuclear cells (PBMCs), to evaluate their safety.
(§4) Metabolic activity assay:
(§5) The metabolic activities of the cell lines were determined using the CellTiter 96 Aqueous One Solution cell proliferation assay (MTS Reagents, Promega, Madison, WI, USA), according to the manufacturer instructions. Briefly, the cells were treated with the selected compounds in 0.1% dimethyl sulfoxide (DMSO; vehicle), 0.1% DMSO (control vehicle), or medium (control) and seeded at a cell density of 5,500 cells/well (MDA-MB-231 cells) or 4 x 10^4 cells/well (K562 cells), 7000 cells/well (HepG2 cells) or 1 x 10^5 cells/well (human PBMCs) in duplicates (MDA-MB-231, K562, and […]) or triplicates for HepG2 cells (100 µL), in sterile 96-well plates. For the MDA-MB-231 and HepG2, the cells were left to adhere overnight before adding the compounds. The plates were then incubated for 24 hours (48 hours for HepG2), after which 15 µL of MTS reagent was added to each well. After 30-90 minute of incubation, the absorbance was measured at 492 nm using a microplate reader (Synergy HTX Multi-Mode; BioTek Instruments, Inc., VT, USA). […]
(§6) Bead Array Human inflammatory cytokine Kit (content: IL-1, IL-6, IL-8, IL-10, IL-12p). The flow cytometric analyses were performed on an Attune NxT flow cytometer (Thermo Fisher Scientific, […]
(§7) Data are represented as means ± standard deviation (SD) from three representative independent experiments.
(§8) All experiments were performed at least twice, with average values expressed as means ± SD. All data were analyzed with the statistical software GraphPad Prism 8.0 (GraphPad Software, Inc., CA, USA). by one-way ANOVA followed with Dunnett’s multiple compar ison test. Differences were considered non-significant for p > 0.05, and significant (*) for p < 0.05. […]

[7] = molecular target: T6, galectin-8N (galectin-8 N-terminal domain) (Homo sapiens, UniProt O00214); assay: Competitive fluorescence polarization assay, galectin-8N; format: binding
T6 construct: selective ligand for the galectin-8 N-terminal domain (galectin-8N); made in house
T6 sequence (O00214 19-152 limits assumed): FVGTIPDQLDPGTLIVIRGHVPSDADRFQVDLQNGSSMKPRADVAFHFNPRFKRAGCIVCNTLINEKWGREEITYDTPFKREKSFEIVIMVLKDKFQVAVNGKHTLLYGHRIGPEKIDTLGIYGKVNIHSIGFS
Procedure: All synthesized D-galactal derivatives had higher binding affinities for galectin-8N than D-galactal 3.
as §1, §2

[8] = system: MDA-MB-231 cancer cell line; assay: MTS metabolic activity (cytotoxicity) assay, MDA-MB-231; format: cell-based, human; details: concentrations 1 to 100 μM, 24 hours
Procedure: as §3, §4, §5, §6, §7, §8

[9] = system: human peripheral blood mononuclear cells (PBMCs); assay: MTS metabolic activity (cytotoxicity) assay, PBMCs; format: cell-based; details: concentrations up to 100 μM, 24 hours
Procedure: as §3, §4, §5, §6, §7, §8

T4 sequence (O00182 17-148 limits assumed): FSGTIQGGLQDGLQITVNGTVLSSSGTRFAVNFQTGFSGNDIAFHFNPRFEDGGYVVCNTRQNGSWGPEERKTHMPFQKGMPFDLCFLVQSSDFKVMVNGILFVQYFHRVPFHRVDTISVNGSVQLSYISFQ
T5 sequence (P47929 whole entry): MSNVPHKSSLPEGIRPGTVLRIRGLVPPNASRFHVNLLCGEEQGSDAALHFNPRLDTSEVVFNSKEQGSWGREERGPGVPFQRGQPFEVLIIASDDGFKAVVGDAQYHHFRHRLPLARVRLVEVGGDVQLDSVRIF

Kd [1]: 1700 ± 150 µM
Kd [2]: 1400 ± 30 µM
Kd [3]: 4000 ± 500 µM
Kd [4]: 1400 ± 57 µM
Kd [5]: > 1500 µM
Kd ([7]; mean ± SEM of n = 4–8): 48 ± 4 µM
selectivity for galectin-8N over galectin-1 ([7]; ratio of Kd values): 27 fold
selectivity for galectin-8N over galectin-3 ([7]; ratio of Kd values): 15 fold
Compound: Cn1c(CO[C@@H]2C=CO[C@H](CO)[C@@H]2O)nc2ccc(C(=O)O)cc21 [6a]
cell viability (MTS), K562 [6]: None of the compounds decreased the viability
cell viability (MTS), MDA-MB-231 [8]: None of the compounds decreased the viability; also recorded: no effect on the viability
direct cytotoxicity (MTS), PBMCs [9]: lack of direct cytotoxicity
